“And” between values parts separate entries of the source, which are not always exact repeats. Equal values may be shown once.
Assays:
[1] = target: T1, 12-LOX (Homo sapiens, UniProt P18054); assay: 12-LOX fluorescent assay (in vitro lipoxygenase inhibition); assay type: biochemical; settings: 100 nM recombinant 12-LOX, 20 μM AA, DHR123 fluorescence; several values in a cell = repeat determinations; read-out: IC50 (μM) values for in vitro lipoxygenase inhibition, 12-LOX
T1 sequence (P18054 1-663): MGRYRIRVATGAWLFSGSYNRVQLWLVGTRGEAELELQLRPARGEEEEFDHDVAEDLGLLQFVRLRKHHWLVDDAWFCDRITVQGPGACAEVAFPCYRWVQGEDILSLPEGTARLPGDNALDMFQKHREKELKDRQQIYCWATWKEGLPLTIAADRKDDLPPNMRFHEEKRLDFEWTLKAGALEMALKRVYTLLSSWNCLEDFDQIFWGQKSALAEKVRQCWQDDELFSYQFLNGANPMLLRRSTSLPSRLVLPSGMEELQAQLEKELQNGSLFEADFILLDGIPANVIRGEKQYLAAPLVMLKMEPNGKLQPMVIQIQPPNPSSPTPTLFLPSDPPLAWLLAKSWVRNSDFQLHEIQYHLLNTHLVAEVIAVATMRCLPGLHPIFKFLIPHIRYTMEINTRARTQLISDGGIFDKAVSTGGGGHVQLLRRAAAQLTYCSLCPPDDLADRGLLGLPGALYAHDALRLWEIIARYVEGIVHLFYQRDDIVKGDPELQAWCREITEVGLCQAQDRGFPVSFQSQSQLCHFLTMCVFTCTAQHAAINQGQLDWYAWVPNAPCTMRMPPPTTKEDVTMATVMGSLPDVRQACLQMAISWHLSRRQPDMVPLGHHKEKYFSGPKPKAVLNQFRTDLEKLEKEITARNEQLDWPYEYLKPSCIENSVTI
In short: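 Fluorescent assay in 50 mM Tris pH 7.5, 0.05% Tween-20, with 100 nM recombinant 12-LOX preincubated 15 min with inhibitor. Reaction was started with 20 μM arachidonic acid substrate and 1 μM DHR123. Percent inhibition per dose was fitted by 4-parameter logistic or sigmoidal dose-response for IC50.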

[2] = target: T2, 5-LOX (Homo sapiens, UniProt P09917); assay: 5-LOX fluorescent assay (in vitro lipoxygenase inhibition); assay type: biochemical; settings: recombinant 5-LOX cell lysate, 20 μM AA, DHR123 fluorescence; several values in a cell = repeat determinations; read-out: IC50 (μM) values for in vitro lipoxygenase inhibition, 5-LOX
T2 sequence (P09917 1-674): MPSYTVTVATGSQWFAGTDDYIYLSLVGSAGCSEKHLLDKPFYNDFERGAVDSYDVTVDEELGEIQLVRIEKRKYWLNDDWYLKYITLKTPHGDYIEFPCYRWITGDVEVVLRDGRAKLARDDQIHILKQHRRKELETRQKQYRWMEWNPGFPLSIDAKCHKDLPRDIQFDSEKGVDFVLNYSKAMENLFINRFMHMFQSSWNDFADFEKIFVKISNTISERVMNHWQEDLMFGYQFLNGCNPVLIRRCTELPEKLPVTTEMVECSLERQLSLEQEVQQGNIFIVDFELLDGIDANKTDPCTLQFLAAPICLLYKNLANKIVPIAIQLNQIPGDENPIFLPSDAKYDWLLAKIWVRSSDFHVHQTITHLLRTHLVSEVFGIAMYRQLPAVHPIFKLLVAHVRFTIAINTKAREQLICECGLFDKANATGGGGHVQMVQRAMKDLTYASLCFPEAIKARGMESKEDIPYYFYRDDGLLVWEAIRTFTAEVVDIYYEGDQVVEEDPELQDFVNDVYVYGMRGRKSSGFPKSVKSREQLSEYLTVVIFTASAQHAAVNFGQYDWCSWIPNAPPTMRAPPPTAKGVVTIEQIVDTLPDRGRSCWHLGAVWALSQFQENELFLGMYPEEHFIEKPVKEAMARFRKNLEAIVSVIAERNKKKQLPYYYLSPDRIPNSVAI
In short: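 Recombinant human 5-LOX cell lysate pre-incubated 15 min with inhibitor in 50 mM Tris pH 7.5, 0.1 mM EDTA, 0.3 mM CaCl2. Reaction started with 20 μM arachidonic acid plus 100 μM ATP, with 1 μM DHR123 as fluorescent probe. IC50 from percent inhibition per dose via 4-parameter logistic or sigmoidal dose-response fit.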

SMILES | IC50 [1] | IC50 [2]
CN(CCn1cncn1)c1cccc(Nc2ccc(F)cc2)c1 [SS20308-0252-01, N^1-(2-(1H-1,2,4-triazol-1-yl)ethyl)-N^3-(4-fluorophenyl)-N^1-methylbenzene-1,3-diamine] | 0.26 µM | 1.09 µM
CN(C)CCCc1c(NCc2ccc(F)cc2)cccc1-c1cccc2c1NCC2 [SS20308-0253-01, 2-(3-(dimethylamino)propyl)-N-(4-fluorobenzyl)-3-(indolin-7-yl)aniline] | 0.29 µM | 0.31 µM
FC1(F)CCC(Nc2ccc(NCC3(Cn4cncn4)COC3)cc2)CC1 [SS20308-0263-01, N^1-((3-((1H-1,2,4-triazol-1-yl)methyl)oxetan-3-yl)methyl)-N^4-(4,4-difluorocyclohexyl) benzene-1,4-diamine] | 0.06 µM and 0.03 µM | 0.22 µM and 0.12 µM
Fc1c(Nc2ccccc2)ccc2c1CCN2CCn1cncn1 [SS20308-0264-01, 1-(2-(1H-1,2,4-triazol-1-yl)ethyl)-4-fluoro-N-phenylindolin-5-amine] | 0.05 µM | 0.27 µM
Cc1cc(Nc2ccc(F)cc2Cl)ccc1NCC1(Cn2cncn2)COC1 [SS20308-0272-01, N1-((3-((1H-1,2,4-triazol-1-yl)methyl)oxetan-3-yl)methyl)-N4-(2-chloro-4-fluorophenyl)-2-methylbenzene-1,4-diamine] | 30 nM and 80 nM and 60 nM (2×) | 0.22 µM and 0.28 µM and 0.11 µM and 0.26 µM
CC1(C)CC(Nc2ccc(NCCn3cncn3)cc2)c2ccccc21 (stereo not drawn) [SS20308-0275-01, N^1-(2-(1H-1,2,4-triazol-1-yl)ethyl)-N^4-(3,3-dimethyl-2,3-dihydro-1H-inden-1-yl)benzene-1,4-diamine] | 0.05 µM and 0.04 µM | 0.26 µM and 0.1 µM
Fc1ccc(Nc2ccc(NCC3(Cn4cncn4)COC3)c(C(F)(F)F)c2)c(Cl)c1 [SS20308-0279-01, N^1-((3-((1H-1,2,4-triazol-1-yl)methyl)oxetan-3-yl)methyl)-N^4-(2-chloro-4-fluorophenyl)-2-(trifluoromethyl)benzene-1,4-diamine] | 0.28 µM | 0.64 µM
Cc1cccc(Nc2ccc(NCC3(Cn4cncn4)COC3)c(C)c2)n1 [SS20308-0289-01, N^1-((3-((1H-1,2,4-triazol-1-yl)methyl)oxetan-3-yl)methyl)-2-methyl-N^4-(6-methylpyridin-2-yl)benzene-1,4-diamine] | 0.07 µM and 0.15 µM | 0.25 µM and 0.61 µM
Fc1ccc(Nc2ccc(NCC3(Cn4cncn4)COC3)c(C(F)(F)F)c2)cc1 [SS20308-0296-01, N^1-((3-((1H-1,2,4-triazol-1-yl)methyl)oxetan-3-yl)methyl)-N^4-(4-fluorophenyl)-2-(trifluoromethyl)benzene-1,4-diamine] | 0.06 µM | 0.08 µM
CN(C)CCCNc1ccc(NC(c2ccccc2)C(F)(F)F)cc1F (stereo not drawn) [SS20308-0302-01, N^1-(3-(dimethylamino)propyl)-2-fluoro-N^4-(2,2,2-trifluoro-1-phenylethyl)benzene-1,4-diamine] | 0.21 µM | 0.25 µM
Cc1cc(Nc2ccc(F)c(Cl)c2)ccc1NCC1(Cn2cncn2)COC1 [SS20308-0307-01, N^1-((3-((1H-1,2,4-triazol-1-yl)methyl)oxetan-3-yl)methyl)-N^4-(3-chloro-4-fluorophenyl)-2-methylbenzene-1,4-diamine] | 0.02 µM and 0.06 µM | 0.05 µM and 0.06 µM
Cc1cc(Nc2ccc(Cl)c(F)c2)ccc1NCC1(Cn2cncn2)COC1 [SS20308-0308-01, N^1-((3-((1H-1,2,4-triazol-1-yl)methyl)oxetan-3-yl)methyl)-N^4-(4-chloro-3-fluorophenyl)-2-methylbenzene-1,4-diamine] | 20 nM (2×) and 50 nM and 60 nM | 0.04 µM and 0.03 µM and 0.05 µM and 0.09 µM
Cc1cc(Nc2ccc(F)cc2Cl)ccc1NCC1(CN2CCOCC2)COC1 [SS20308-0309-01, N^4-(2-chloro-4-fluorophenyl)-2-methyl-N^1-((3-(morpholinomethyl)oxetan-3-yl)methyl) benzene-1,4-diamine] | 0.04 µM and 0.08 µM | 0.09 µM and 0.12 µM
Fc1cc(Nc2ccccc2Cl)ccc1NCC1(Cn2cncn2)COC1 [SS20308-0313-01, N^1-((3-((1H-1,2,4-triazol-1-yl)methyl)oxetan-3-yl)methyl)-N^4-(2-chlorophenyl)-2-fluorobenzene-1,4-diamine] | 0.11 µM | 0.35 µM
FC(F)(F)C(Nc1ccc(NCCCN2CCOCC2)c(C2CCOCC2)c1)c1ccccc1 (stereo not drawn) [SS20308-0315-01, N^1-(3-morpholinopropyl)-2-(tetrahydro-2H-pyran-4-yl)-N^4-(2,2,2-trifluoro-1-phenylethyl)benzene-1,4-diamine] | 0.06 µM | 0.07 µM
Fc1ccc(Nc2ccc(NCCCN3CCOCC3)c(C(F)(F)F)c2)cc1 [SS20308-0316-01, N^4-(4-fluorophenyl)-N^1-(3-morpholinopropyl)-2-(trifluoromethyl)benzene-1,4-diamine] | 0.03 µM | 0.07 µM
FC(F)(F)c1cc(NC2(c3ccccc3)COC2)ccc1NCCN1CCOCC1 [SS20308-0317-01, N^1-(2-morpholinoethyl)-N^4-(3-phenyloxetan-3-yl)-2-(trifluoromethyl)benzene-1,4-diamine] | 0.32 µM | 0.57 µM
Fc1ccc(Nc2ccc(NCC3(Cn4cncn4)COC3)c(OC(F)(F)F)c2)cc1 [SS20308-0319-01, N^1-((3-((1H-1,2,4-triazol-1-yl)methyl)oxetan-3-yl)methyl)-N^4-(4-fluorophenyl)-2-(trifluoromethoxy)benzene-1,4-diamine] | 0.05 µM | 0.15 µM
Fc1ccc(Nc2ccc(NCC3(CN4CCCC4)COC3)c(C(F)(F)F)c2)cc1 [SS20308-0320-01, N^4-(4-fluorophenyl)-N^1-((3-(pyrrolidin-1-ylmethyl)oxetan-3-yl)methyl)-2-(trifluoromethyl)benzene-1,4-diamine] | 0.08 µM | 0.06 µM
FC(F)(F)c1cc(Nc2ccc(Cl)cc2)ccc1NCC1(Cn2cncn2)COC1 [SS20308-0322-01, N^1-((3-((1H-1,2,4-triazol-1-yl)methyl)oxetan-3-yl)methyl)-N^4-(4-chlorophenyl)-2-(trifluoromethyl)benzene-1,4-diamine] | 0.05 µM | 0.05 µM
Cc1cc(Nc2ccc(Cl)c(F)c2)ccc1NCC1(CN2CCOCC2)COC1 [SS20308-0323-01, N^4-(4-chloro-3-fluorophenyl)-2-methyl-N^1-((3-(morpholinomethyl)oxetan-3-yl)methyl) benzene-1,4-diamine] | 0.02 µM | 0.05 µM
Cc1cc(Nc2ccc(Cl)c(F)c2)ccc1NCC1(CN2CCCC2)COC1 [SS20308-0324-01, N^4-(4-chloro-3-fluorophenyl)-2-methyl-N^1-((3-(pyrrolidin-1-ylmethyl)oxetan-3-yl)methyl)benzene-1,4-diamine] | 0.03 µM | 0.15 µM and 0.44 µM
FC(F)(F)C(Nc1ccc(NCCCN2CCOCC2)c(C2CCCCC2)c1)c1ccccc1 (stereo not drawn) [SS20308-0325-01, 2-cyclohexyl-N^1-(3-morpholinopropyl)-N^4-(2,2,2-trifluoro-1-phenylethyl)benzene-1,4-diamine] | 0.03 µM | 0.04 µM
Cc1cc(Nc2ccc(Cl)c(F)c2)ccc1NCC1(Cn2cccn2)COC1 [SS20308-0327-01, N1-((3-((1H-pyrazol-1-yl)methyl)oxetan-3-yl)methyl)-N4-(4-chloro-3-fluorophenyl)-2-methylbenzene-1,4-diamine] | 0.04 µM | 0.07 µM

Source: US20230117592A1 (SRI International, priority 2019, published 2023)
